Experimental data from patent publication US20250025443A1, “COMPOUNDS AND METHODS FOR TREATING CORONA VIRUSES” (CLEAR CREEK BIO, INC., priority 2021, published 2025).

target: SARS-CoV-2 Papain-Like Protease (PLpro) (Severe acute respiratory syndrome coronavirus 2 (2019-nCoV) (SARS-CoV-2), UniProt P0DTD1); experiment: biochemical; conditions: PLpro enzymatic fluorescence assay; class symbols; read-out: PLpro IC50

Q: `Cc1ccc(OC[C@@H]2CCN2C)cc1C(=O)NC1(c2cc(-c3nc4ccccc4o3)cc3ncccc23)CC1` [Compound 718, (S)—N-(1-(7-(Benzo[d]oxazol-2-yl)quinolin-5-yl)cyclopropyl)-2-methyl-5-((1-methylazetidin-2-yl)methoxy)benzamide] was tested. Which IC50 did it give?
A: < 100 nM

Q: For `COc1cc(C2(NC(=O)c3cc(O[C@H]4CC[C@@H]5CNCCN5C4)ccc3C)CC2)c2cccnc2c1` [Compound 790], which IC50 is on record?
A: < 100 nM

Q: For `COc1cc(C2(NC(=O)c3cc(OC[C@H]4CCN4C)ccc3C)CC2)c2cccnc2c1` [Compound 558, (R)-N-(1-(7-Methoxyquinolin-5-yl)cyclopropyl)-2-methyl-5-((1-methylazetidin-2-yl)methoxy)benzamide], which IC50 is on record?
A: < 100 nM

Q: `C=Cc1cc(C2(NC(=O)c3cc(OC[C@@H]4CCN4C)ccc3C)CC2)c2cccnc2c1` [Compound 570, (S)-2-Methyl-5-((1-methylazetidin-2-yl)methoxy)-N-(1-(7-vinylquinolin-5-yl)cyclopropyl)benzamide] was tested. Which IC50 did it give?
A: < 100 nM

Q: `Cc1ccc(OC[C@@H]2CCN2C)cc1C(=O)NC1(c2cc(-c3cc[nH]n3)cc3ncccc23)CC1` [Compound 633, (S)-N-(1-(7-(1H-Pyrazol-3-yl)quinolin-5-yl)cyclopropyl)-2-methyl-5-((1-methylazetidin-2-yl)methoxy)benzamide] was tested. Which IC50 did it give?
A: < 100 nM

Q: For `Cc1ccc(OC[C@@H]2CCN2C)cc1C(=O)NC1(c2cc(C3=CCCC3)cc3ncccc23)CC1` [Compound 609, (S)-N-(1-(7-(Cyclopent-1-en-1-yl)quinolin-5-yl)cyclopropyl)-2-methyl-5-((1-methylazetidin-2-yl)methoxy)benzamide], which IC50 is on record?
A: < 100 nM

Q: `Cc1ccc(O[C@@H]2CCCC[C@H]2N)cc1CNC1(c2cccc3ccccc23)CC1` (single isomer, unassigned) [Compound 429] was tested. Which IC50 did it give?
A: 100 to 1000 nM

Q: Which IC50 does the source give for `C=C(C)c1cc(C2(NC(=O)c3cc(OC[C@@H]4CCCN4C)ccc3C)CC2)c2cccnc2c1` [Compound 719, (S)-2-Methyl-5-((1-methylpyrrolidin-2-yl)methoxy)-N-(1-(7-(prop-1-en-2-yl)quinolin-5-yl)cyclopropyl)benzamide] here?
A: < 100 nM

Q: With `[2H]C([2H])([2H])N1CC[C@H]1COc1ccc(C)c(C(=O)NC2(c3cc(C=C)cc4ncccc34)CC2)c1` [Compound 788, (S)-2-Methyl-5-((1-(methyl-d3)azetidin-2-yl)methoxy)-N-(1-(7-vinylquinolin-5-yl)cyclopropyl)benzamide] as the molecule, how does the IC50 read?
A: < 100 nM

Q: For `Cc1ccc(OC[C@@H]2CCN2)cc1C(=O)NC1(c2cc(-c3cn[nH]c3)cc3ncccc23)CC1` [Compound 642, (S)-N-(1-(7-(1H-Pyrazol-4-yl)quinolin-5-yl)cyclopropyl)-5-(azetidin-2-ylmethoxy)-2-methylbenzamide], which IC50 is on record?
A: < 100 nM

Q: Which IC50 does the source give for `Cc1ccc(N2CCC(N)C2)cc1C(=O)NC1(c2cccc3ccccc23)CC1` (centres unmarked) [Compound 485, 5-(3-Aminopyrrolidin-1-yl)-2-methyl-N-(1-(naphthalen-1-yl)cyclopropyl)benzamide] here?
A: < 100 nM

Q: Which IC50 does the source give for `CNCCOc1ccc(C)c(C(=O)NC2(c3cc(-c4cccs4)cc4ncccc34)CC2)c1` [Compound 630, 2-Methyl-5-(2-(methylamino)ethoxy)-N-(1-(7-(thiophen-2-yl)quinolin-5-yl)cyclopropyl)benzamide] here?
A: < 100 nM

Q: `COc1cc(C2(NC(=O)c3cc(OC[C@@H]4CCN4C)ccc3F)CC2)c2ccc(C)nc2c1` [Compound 791, (S)-2-Fluoro-N-(1-(7-methoxy-2-methylquinolin-5-yl)cyclopropyl)-5-((1-methylazetidin-2-yl)methoxy)benzamide] was tested. Which IC50 did it give?
A: 100 to 1000 nM

Q: How did the IC50 turn out when `Cc1ccc(OCC2CCN2C)cc1C(=O)NC1(c2c(C)ccc3ccccc23)CC1` (centres unmarked) [Compound 458, 2-Methyl-5-((1-methylazetidin-2-yl)methoxy)-N-(1-(2-methylnaphthalen-1-yl)cyclopropyl)benzamide] was run?
A: < 100 nM

Q: For `Cc1ccc(OC[C@@H]2CCN2C)cc1C(=O)NC1(c2cc(C(C)O)cc3ncccc23)CC1` (stereo partly drawn) [Compound 676, N-(1-(7-(1-Hydroxyethyl)quinolin-5-yl)cyclopropyl)-2-methyl-5-(((S)-1-methylazetidin-2-yl)methoxy)benzamide], which IC50 is on record?
A: < 100 nM

Q: How did the IC50 turn out when `Cc1ncc(-c2cc(C3(NC(=O)c4cc(OC[C@@H]5CCN5C)ccc4C)CC3)c3cccnc3c2)s1` [Compound 764, (S)-2-Methyl-5-((1-methylazetidin-2-yl)methoxy)-N-(1-(7-(2-methylthiazol-5-yl)quinolin-5-yl)cyclopropyl)benzamide] was run?
A: < 100 nM

Q: How did the IC50 turn out when `Cc1ccc(-c2cc(C3(NC(=O)c4cc(OCC(C)N)ccc4C)CC3)c3ccccc3c2)s1` (centres unmarked) [Compound 479, 5-(2-Aminopropoxy)-2-methyl-N-(1-(3-(5-methylthiophen-2-yl)naphthalen-1-yl)cyclopropyl)benzamide] was run?
A: < 100 nM

same assay, conditions: SARS-CoV-2 PLpro enzymatic fluorescence assay; read-out: PLpro IC50

Q: `Cc1ccc(O[C@@H]2CC[C@@H]2N)cc1C(=O)NC1(c2cccc3ccccc23)CC1` (racemic) [Compound 406, rac-5-((1S,2R)-2-Aminocyclobutoxy)-2-methyl-N-(1-(naphthalen-1-yl)cyclopropyl)benzamide] was tested. Which IC50 did it give?
A: < 100 nM

Q: For “5-((1-(2-Hydroxyethyl)azetidin-2-yl)methoxy)-2-methyl-N-(1-(naphthalen-1-yl)cyclopropyl)benzamide [Compound 341]”, which IC50 is on record?
A: < 100 nM

Q: With `Cc1ccc(OC[C@H]2C[C@H](O)CN2)cc1C(=O)NC1(c2cccc3ccccc23)CC1` [Compound 414, 5-(((2R,4S)-4-Hydroxypyrrolidin-2-yl)methoxy)-2-methyl-N-(1-(naphthalen-1-yl)cyclopropyl)benzamide] as the molecule, how does the IC50 read?
A: < 100 nM

Q: Which IC50 does the source give for `Cc1ccc(Nc2ccc[nH]c2=O)cc1C(=O)N[C@H](C)c1cccc2ccccc12` [Compound 119, (R)-2-Methyl-N-(1-(naphthalen-1-yl)ethyl)-5-((2-oxo-1,2-dihydropyridin-3-yl)amino)benzamide] here?
A: 1000 to 5000 nM

Q: Which IC50 does the source give for `COCc1cc2cc(C)c(C(=O)NC3(c4cccc5ccccc45)CC3)cc2[nH]1` [Compound 240, 2-(Methoxymethyl)-5-methyl-N-(1-(naphthalen-1-yl)cyclopropyl)-1H-indole-6-carboxamide] here?
A: 100 to 1000 nM

Q: How did the IC50 turn out when `Cc1cc2c(cc1C(=O)NC1(c3cccc4ccccc34)CC1)NC(=O)C2` [Compound 249, 5-Methyl-N-(1-(naphthalen-1-yl)cyclopropyl)-2-oxoindoline-6-carboxamide] was run?
A: 100 to 1000 nM

Q: Which IC50 does the source give for `CC(c1cccc2ccccc12)N1CCc2ccc(NC(=O)Cc3ccccc3)cc2C1` (centres unmarked) [Compound 139, N-(2-(1-(Naphthalen-1-yl)ethyl)-1,2,3,4-tetrahydroisoquinolin-7-yl)-2-phenylacetamide] here?
A: > 5000 nM

Q: Which IC50 does the source give for `Cc1ccc(OCCN(C)C)cc1NC(=O)C1(c2cccc3ccccc23)CC1` [Compound 580, N-(5-(2-(Dimethylamino)ethoxy)-2-methylphenyl)-1-(naphthalen-1-yl)cyclopropane-1-carboxamide] here?
A: > 5000 nM

Q: Which IC50 does the source give for `Cc1ccc(OCCNC(C)C)cc1C(=O)NC1(c2cccc3ccccc23)CC1` [Compound 362, 5-(2-(Isopropylamino)ethoxy)-2-methyl-N-(1-(naphthalen-1-yl)cyclopropyl)benzamide] here?
A: < 100 nM

Q: How did the IC50 turn out when `CNCC1Cc2cc(C)c(C(=O)NC3(c4cccc5ccccc45)CC3)cc2N1` (centres unmarked) [Compound 231, 5-Methyl-2-((methylamino)methyl)-N-(1-(naphthalen-1-yl)cyclopropyl)indoline-6-carboxamide] was run?
A: < 100 nM

Q: Which IC50 does the source give for `Cc1ccc(OC[C@@H]2CCN2C)cc1C(=O)NC1(c2cc(N(C)C)cc3ncccc23)CC1` [Compound 627, (S)-N-(1-(7-(Dimethylamino)quinolin-5-yl)cyclopropyl)-2-methyl-5-((1-methylazetidin-2-yl)methoxy)benzamide] here?
A: < 100 nM

Q: With `Cc1cc2c(cc1C(=O)NC1(c3cccc4ccccc34)CC1)NC(CN)C2` (centres unmarked) [Compound 190, 2-(Aminomethyl)-5-methyl-N-(1-(naphthalen-1-yl)cyclopropyl)indoline-6-carboxamide] as the molecule, how does the IC50 read?
A: < 100 nM

Q: With `Cc1ccc(OCCN(C)C)cc1C(=O)NC1(c2ccccc2Oc2ccccc2)CC1` [Compound 298, 5-(2-(Dimethylamino)ethoxy)-2-methyl-N-(1-(2-phenoxyphenyl)cyclopropyl)benzamide] as the molecule, how does the IC50 read?
A: 1000 to 5000 nM

Q: How did the IC50 turn out when `Cc1ccc(C2CCNCC2)cc1C(=O)NC1(c2cccc3ccccc23)CC1` [Compound 407, 2-Methyl-N-(1-(naphthalen-1-yl)cyclopropyl)-5-(piperidin-4-yl)benzamide] was run?
A: < 100 nM

Q: How did the IC50 turn out when `Cc1ccc(OC[C@@H]2CCN2C)cc1C(=O)NC1(c2cc(OCc3ccccc3)cc3ncccc23)CC1` [Compound 598, (S)-N-(1-(7-(Benzyloxy)quinolin-5-yl)cyclopropyl)-2-methyl-5-((1-methylazetidin-2-yl)methoxy)benzamide] was run?
A: < 100 nM

Q: Which IC50 does the source give for `Cc1cc2cc[nH]c2cc1C(=O)N[C@H](C)c1cccc2ccccc12` [Compound 153, (R)-5-Methyl-N-(1-(naphthalen-1-yl)ethyl)-1H-indole-6-carboxamide] here?
A: 1000 to 5000 nM

Q: How did the IC50 turn out when `CN(Cc1ccc2[nH]ncc2c1)C1(c2cccc3ccccc23)CC1` [Compound 184, N-((1H-Indazol-5-yl)methyl)-N-methyl-1-(naphthalen-1-yl)cyclopropane amine] was run?
A: > 5000 nM

Q: For `Cc1ccc(OCC2COCCN2)cc1C(=O)NC1(c2cccc3ccccc23)CC1` (centres unmarked) [Compound 286, 2-Methyl-5-(morpholin-3-ylmethoxy)-N-(1-(naphthalen-1-yl)cyclopropyl)benzamide], which IC50 is on record?
A: < 100 nM

Q: How did the IC50 turn out when `Cc1cc(C2(NC(=O)c3cc(OCC(C)N)ccc3C)CC2)c2cccnc2c1` (centres unmarked) [Compound 497, 5-(2-Aminopropoxy)-2-methyl-N-(1-(7-methylquinolin-5-yl)cyclopropyl)benzamide] was run?
A: < 100 nM

Q: `Cc1cc2c(cc1C(=O)NC1(c3cccc4ccccc34)CC1)NCC2` [Compound 207, 5-Methyl-N-(1-(naphthalen-1-yl)cyclopropyl)indoline-6-carboxamide] was tested. Which IC50 did it give?
A: 100 to 1000 nM

Q: `Cc1ccc(OCC2CCN2CC(F)(F)F)cc1C(=O)NC1(c2cccc3ccccc23)CC1` (centres unmarked) [Compound 396, 2-Methyl-N-(1-(naphthalen-1-yl)cyclopropyl)-5-((1-(2,2,2-trifluoroethyl)azetidin-2-yl)methoxy)benzamide] was tested. Which IC50 did it give?
A: 1000 to 5000 nM
